Assay results as given in patent US7241760B2, “Heteroaryl-substituted imidazole derivatives” (Hoffmann-La Roche Inc., priority 2003, dated 2007).

Molecular target: T1, human mGlu 5a receptor (Homo sapiens, UniProt P41594)
T1 construct: expressed in transfected cells; host or cells: EBNA cells (transient transfection); cell membrane homogenates
Assay: [3H]MPEP competition binding on membranes of EBNA cells transfected with human mGlu 5a receptor
Details: competition with [3H]MPEP (2 nM), 1 h at 4° C., membranes of transiently transfected EBNA cells; Ki=IC50/[1+L/Kd]
Method: For binding experiments, cDNA encoding human mGlu 5a receptor was transiently transfected into EBNA cells using a procedure described by Schlaeger and Christensen [Cytotechnology 15:1–13 (1998)]. Cell membrane homogenates were stored at −80° C. until the day of assay where upon they were thawed and resuspended and polytronised in 15 mM Tris-HCl, 120 mM NaCl, 100 mM KCl, 25 mM CaCl2, 25 mM MgCl2 binding buffer at pH 7.4 to a final assay concentration of 20 μg protein/well.
Saturation isotherms were determined by addition of twelve [^3H]MPEP concentrations (0.04–100 nM) to these membranes (in a total volume of 200 μl) for 1 h at 4° C. Competition experiments were performed with a fixed concentration of [^3H]MPEP (2 nM) and IC50 values of test compounds evaluated using 11 concentrations (0.3–10,000 nM). Incubations were performed for 1 h at 4° C.
At the end of the incubation, membranes were filtered onto unifilter (96-well white microplate with bonded GF/C filter preincubated 1 h in 0.1% PEI in wash buffer, Packard BioScience, Meriden, Conn.) with a Filtermate 96 harvester (Packard BioScience) and washed 3 times with cold 50 mM Tris-HCl, pH 7.4 buffer. Nonspecific binding was measured in the presence of 10 μM MPEP. The radioactivity on the filter was counted (3 min) on a Packard Top-count microplate scintillation counter with quenching correction after addition of 45 μl of microscint 40 (Can berra Packard S. A., Zürich, Switzerland) and shaking for 20 min. For functional assays, [Ca^2+]i measurements were performed as described previously by Porter et al. [Br. J. Pharmacol. 128:13–20 (1999)] on recombinant human mGlu 5a receptors in HEK-293 cells. The cells were dye loaded using Fluo 4-AM (obtainable by FLUKA, 0.2 μM final concentration). [Ca^2+]i measurements were performed using a fluorometric imaging plate reader (FLIPR, Molecular Devices Corporation, La Jolla, Calif., USA). Antagonist evaluation was performed following a 5 min preincubation with the test compounds followed by the addition of a submaximal addition of agonist.
The inhibition (antagonists) curves were fitted with a four parameter logistic equation giving IC50, and Hill coefficient using an iterative non linear curve fitting software (Xcel fit).
For binding experiments the Ki values of the compounds tested are given. The Ki value is defined by the following formula: Ki=IC50/[1+L/Kd] in which the IC50 values are those concentrations of the compounds tested which cause 50% inhibition of the competing radioligand ([^3H]MPEP). L is the concentration of radioligand used in the binding experiment and the Kd value of the radioligand is empirically determined for each batch of membranes prepared.

T1 sequence (P41594 21-1180 isoform P41594-2 limits assumed): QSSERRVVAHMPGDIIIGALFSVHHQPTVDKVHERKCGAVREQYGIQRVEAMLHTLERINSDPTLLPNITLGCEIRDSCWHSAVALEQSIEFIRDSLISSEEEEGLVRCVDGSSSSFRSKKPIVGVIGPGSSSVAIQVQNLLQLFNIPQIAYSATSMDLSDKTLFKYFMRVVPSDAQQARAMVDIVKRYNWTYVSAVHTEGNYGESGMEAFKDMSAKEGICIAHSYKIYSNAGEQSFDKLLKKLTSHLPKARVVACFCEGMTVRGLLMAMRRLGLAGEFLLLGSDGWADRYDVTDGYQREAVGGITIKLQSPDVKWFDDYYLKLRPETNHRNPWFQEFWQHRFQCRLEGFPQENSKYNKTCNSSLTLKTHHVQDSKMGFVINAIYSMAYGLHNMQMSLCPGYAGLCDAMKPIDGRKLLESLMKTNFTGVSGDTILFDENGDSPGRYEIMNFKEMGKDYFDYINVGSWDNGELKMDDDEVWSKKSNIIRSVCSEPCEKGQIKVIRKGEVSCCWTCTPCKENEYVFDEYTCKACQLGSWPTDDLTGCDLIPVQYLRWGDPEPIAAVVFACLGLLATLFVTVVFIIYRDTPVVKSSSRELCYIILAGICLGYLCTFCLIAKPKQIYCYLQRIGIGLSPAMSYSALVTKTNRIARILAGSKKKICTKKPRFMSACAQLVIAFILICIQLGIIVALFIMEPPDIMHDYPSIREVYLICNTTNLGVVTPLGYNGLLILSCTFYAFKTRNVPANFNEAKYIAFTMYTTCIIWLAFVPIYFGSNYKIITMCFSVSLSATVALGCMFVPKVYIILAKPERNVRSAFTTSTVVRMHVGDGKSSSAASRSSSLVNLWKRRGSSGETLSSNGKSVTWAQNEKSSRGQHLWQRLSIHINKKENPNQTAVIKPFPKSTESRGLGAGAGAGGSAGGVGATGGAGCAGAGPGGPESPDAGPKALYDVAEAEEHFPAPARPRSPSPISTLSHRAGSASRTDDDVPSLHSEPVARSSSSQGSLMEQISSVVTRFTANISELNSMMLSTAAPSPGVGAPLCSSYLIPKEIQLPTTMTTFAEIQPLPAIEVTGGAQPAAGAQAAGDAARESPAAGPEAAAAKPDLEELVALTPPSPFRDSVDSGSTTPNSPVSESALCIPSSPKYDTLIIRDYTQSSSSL

Structure (SMILES)	Ki
Cc1nc(C#Cc2cccc(Cl)c2)cn1-c1ncccn1 [Example 1, 2-[4-(3-Chloro-phenylethynyl)-2-methyl-imidazol-1-yl]-pyrimidine]	63 nM
Cc1nc(C#Cc2cccc(Cl)c2)cn1-c1nccc(C(F)(F)F)n1 [Example 2, 2-[4-(3-Chloro-phenylethynyl)-2-methyl-imidazol-1-yl]-4-trifluoromethyl-pyrimidine]	28 nM
Cc1cccc(-n2cc(C#Cc3cccc(C#N)c3)nc2C)n1 [Example 3, 3-[2-Methyl-1-(6-methyl-pyridin-2-yl)-1H-imidazol-4-ylethynyl]-benzonitrile]	31 nM
Cc1cc(-n2cc(C#Cc3cccc(Cl)c3)nc2C)cnn1 [Example 8, 5-[4-(3-Chloro-phenylethynyl)-2-methyl-imidazol-1-yl]-3-methyl-pyridazine]	157 nM
Cc1nc(C#Cc2cccc(Cl)c2)cn1-c1ccoc1 [Example 9, 4-(3-Chloro-phenylethynyl)-1-furan-3-yl-2-methyl-1H-imidazole]	11 nM
COc1ccnc(-n2cc(C#Cc3cccc(C#N)c3)nc2C)n1 [Example 20, 3-[1-(4-Methoxy-pyrimidin-2-yl)-2-methyl-1H-imidazol-4-ylethynyl]-benzonitrile]	11 nM
Cc1nc(C#Cc2cccc(C#N)c2)cn1-c1cnccn1 [Example 22, 3-(2-Methyl-1-pyrazin-2-yl-1H-imidazol-4-ylethynyl)-benzonitrile]	60 nM
Cc1nc(C#Cc2cccc(Cl)c2)cn1-c1ccc(Cl)nn1 [Example 25, 3-Chloro-6-[4-(3-chloro-phenylethynyl)-2-methyl-imidazol-1-yl]-pyridazine]	32 nM
COc1ccc(-n2cc(C#Cc3cccc(Cl)c3)nc2C)nn1 [Example 26, 3-[4-(3-Chloro-phenylethynyl)-2-methyl-imidazol-1-yl]-6-methoxy-pyridazine]	94 nM
Cc1nc(C#Cc2cccc(Cl)c2)cn1-c1ccc(N(C)C)nn1 [Example 27, {6-[4-(3-Chloro-phenylethynyl)-2-methyl-imidazol-1-yl]-pyridazin-3-yl}-dimethyl-amine]	130 nM
Cc1ccc(-n2cc(C#Cc3cccc(C(F)(F)F)c3)nc2C)nc1 [Example 31, 5-Methyl-2-[2-methyl-4-(3-trifluoromethyl-phenylethynyl)-imidazol-1-yl]-pyridine]	88 nM
Cc1nc(C#Cc2cccc(C(F)(F)F)c2)cn1-c1ccc(Cl)nc1 [Example 33, 2-Chloro-5-[2-methyl-4-(3-trifluoromethyl-phenylethynyl)-imidazol-1-yl]-pyridine]	66 nM
Cc1nc(C#Cc2cccc(C#N)c2)cn1-c1cncc(F)c1 [Example 35, 3-[1-(5-Fluoro-pyridin-3-yl)-2-methyl-1H-imidazol-4-ylethynyl]-benzonitrile]	39 nM
Cc1nc(C#Cc2cccc(C#N)c2)cn1-c1cncc(N(C)C)c1 [Example 38, 3-[1-(5-Dimethylamino-pyridin-3-yl)-2-methyl-1H-imidazol-4-ylethynyl]-benzonitrile]	99 nM
Cc1nc(C#Cc2cccc(Cl)c2)cn1-c1cccc(N2CCSCC2)n1 [Example 39, 4-{6-[4-(3-Chloro-phenylethynyl)-2-methyl-imidazol-1-yl]-pyridin-2-yl}-thiomorpholine]	9 nM
Cc1nc(C#Cc2cccc(Cl)c2)cn1-c1cccc(N2CCS(=O)(=O)CC2)n1 [Example 40, 4-{6-[4-(3-Chloro-phenylethynyl)-2-methyl-imidazol-1-yl]-pyridin-2-yl}-thiomorpholine-1,1-dioxide]	68 nM
